Test results reported in US9492471B2, “Methods of treating a disease or disorder associated with Bruton'S Tyrosine Kinase” (Celgene Avilomics Research, Inc., priority 2013, dated 2016).
Where two headings read alike, the source gives them in different places.

What was measured:
Assay in all cases: HotSpot kinase profiling
Type in all cases: biochemical
[1] = molecular target: T1, NEK5 (Homo sapiens, UniProt Q6P3R8)
T1 construct: purchased Reaction Biology Corp
T1 sequence (Q6P3R8 1-708): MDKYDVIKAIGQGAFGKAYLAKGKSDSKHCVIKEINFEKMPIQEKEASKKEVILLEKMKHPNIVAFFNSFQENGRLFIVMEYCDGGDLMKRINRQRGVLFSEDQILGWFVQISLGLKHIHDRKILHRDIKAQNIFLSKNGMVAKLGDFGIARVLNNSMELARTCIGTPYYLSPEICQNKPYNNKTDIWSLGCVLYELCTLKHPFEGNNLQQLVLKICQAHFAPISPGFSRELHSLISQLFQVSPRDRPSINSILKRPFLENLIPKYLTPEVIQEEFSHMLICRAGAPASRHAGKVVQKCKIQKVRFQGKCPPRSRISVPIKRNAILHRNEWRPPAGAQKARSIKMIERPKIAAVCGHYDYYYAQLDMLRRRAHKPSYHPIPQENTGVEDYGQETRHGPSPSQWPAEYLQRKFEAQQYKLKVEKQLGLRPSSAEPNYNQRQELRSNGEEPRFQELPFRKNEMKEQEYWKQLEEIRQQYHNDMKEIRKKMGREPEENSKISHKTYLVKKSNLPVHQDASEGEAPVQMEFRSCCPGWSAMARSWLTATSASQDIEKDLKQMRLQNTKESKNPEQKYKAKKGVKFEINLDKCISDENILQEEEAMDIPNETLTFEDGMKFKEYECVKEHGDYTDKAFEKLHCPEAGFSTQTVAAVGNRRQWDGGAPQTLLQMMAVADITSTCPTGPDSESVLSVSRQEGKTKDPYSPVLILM
Outline: (§1)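 P81 filtration radiometric readout; 2 h incubation at room temperature; 0.1% phosphoric acid wash; DMSO negative control; % inhibition, mean of replicate runs.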

[2] = molecular target: T2, SSTK/TSSK6 (Homo sapiens, UniProt Q9BXA6)
T2 construct: purchased Reaction Biology Corp
T2 sequence (Q9BXA6 whole entry): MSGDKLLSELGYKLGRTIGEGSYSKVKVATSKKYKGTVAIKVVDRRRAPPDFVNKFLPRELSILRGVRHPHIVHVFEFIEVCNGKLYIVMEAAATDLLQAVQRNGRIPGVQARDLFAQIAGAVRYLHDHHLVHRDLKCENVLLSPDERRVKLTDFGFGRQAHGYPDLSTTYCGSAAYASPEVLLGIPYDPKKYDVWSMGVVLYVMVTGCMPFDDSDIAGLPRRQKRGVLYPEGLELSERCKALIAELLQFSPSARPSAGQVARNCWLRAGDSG
Outline: as §1

[3] = molecular target: T3, BRSK2 (Homo sapiens, UniProt Q8IWQ3)
T3 construct: purchased Reaction Biology Corp
T3 sequence (Q8IWQ3 1-736): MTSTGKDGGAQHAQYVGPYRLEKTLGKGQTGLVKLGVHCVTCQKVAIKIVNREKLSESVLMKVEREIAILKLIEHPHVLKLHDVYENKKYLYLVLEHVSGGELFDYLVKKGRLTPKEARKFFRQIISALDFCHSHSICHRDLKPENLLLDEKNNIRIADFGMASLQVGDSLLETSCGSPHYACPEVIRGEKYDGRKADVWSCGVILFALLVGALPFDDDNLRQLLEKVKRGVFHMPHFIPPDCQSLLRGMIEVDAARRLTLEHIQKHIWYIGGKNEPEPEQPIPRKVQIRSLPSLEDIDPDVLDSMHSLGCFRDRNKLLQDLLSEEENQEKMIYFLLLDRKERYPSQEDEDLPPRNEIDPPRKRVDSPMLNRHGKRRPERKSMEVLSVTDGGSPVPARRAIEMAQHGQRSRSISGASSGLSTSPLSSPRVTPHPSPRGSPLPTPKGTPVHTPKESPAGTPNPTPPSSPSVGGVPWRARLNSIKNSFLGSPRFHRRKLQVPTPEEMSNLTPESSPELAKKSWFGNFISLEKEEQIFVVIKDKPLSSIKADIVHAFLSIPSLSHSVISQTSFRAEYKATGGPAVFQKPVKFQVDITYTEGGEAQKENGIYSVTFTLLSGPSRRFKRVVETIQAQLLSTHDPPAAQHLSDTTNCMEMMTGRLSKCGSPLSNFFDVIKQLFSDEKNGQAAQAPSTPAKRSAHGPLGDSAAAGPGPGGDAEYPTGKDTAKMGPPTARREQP
Outline: as §1

[4] = molecular target: T4, PKAcg (Homo sapiens, UniProt P22612)
T4 construct: purchased Reaction Biology Corp
T4 sequence (P22612 whole entry): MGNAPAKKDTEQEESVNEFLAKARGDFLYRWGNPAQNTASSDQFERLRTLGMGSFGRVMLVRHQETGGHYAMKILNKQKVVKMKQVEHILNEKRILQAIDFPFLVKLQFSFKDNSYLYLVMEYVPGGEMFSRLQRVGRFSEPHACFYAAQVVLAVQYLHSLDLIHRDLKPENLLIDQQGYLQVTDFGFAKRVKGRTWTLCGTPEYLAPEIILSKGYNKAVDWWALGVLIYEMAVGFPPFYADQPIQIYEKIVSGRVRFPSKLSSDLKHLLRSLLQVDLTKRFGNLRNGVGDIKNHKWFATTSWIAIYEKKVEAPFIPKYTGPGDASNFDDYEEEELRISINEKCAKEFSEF
Outline: as §1

[5] = molecular target: T5, CK2a2 (Homo sapiens, UniProt P19784)
T5 construct: purchased Reaction Biology Corp
T5 sequence (P19784 whole entry): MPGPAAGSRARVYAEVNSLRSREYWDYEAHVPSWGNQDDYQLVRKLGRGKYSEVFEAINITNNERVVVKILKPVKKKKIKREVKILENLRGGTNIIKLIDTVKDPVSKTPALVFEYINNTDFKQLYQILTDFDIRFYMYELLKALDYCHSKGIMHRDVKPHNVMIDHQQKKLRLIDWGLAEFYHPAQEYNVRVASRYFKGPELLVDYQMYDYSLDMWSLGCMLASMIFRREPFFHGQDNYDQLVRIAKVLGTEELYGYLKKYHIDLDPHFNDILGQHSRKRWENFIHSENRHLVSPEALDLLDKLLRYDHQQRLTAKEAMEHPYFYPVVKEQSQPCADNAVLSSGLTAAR
Outline: as §1

[6] = molecular target: T6, FMS (Homo sapiens, UniProt P07333)
T6 construct: purchased Reaction Biology Corp
T6 sequence (P07333 20-972): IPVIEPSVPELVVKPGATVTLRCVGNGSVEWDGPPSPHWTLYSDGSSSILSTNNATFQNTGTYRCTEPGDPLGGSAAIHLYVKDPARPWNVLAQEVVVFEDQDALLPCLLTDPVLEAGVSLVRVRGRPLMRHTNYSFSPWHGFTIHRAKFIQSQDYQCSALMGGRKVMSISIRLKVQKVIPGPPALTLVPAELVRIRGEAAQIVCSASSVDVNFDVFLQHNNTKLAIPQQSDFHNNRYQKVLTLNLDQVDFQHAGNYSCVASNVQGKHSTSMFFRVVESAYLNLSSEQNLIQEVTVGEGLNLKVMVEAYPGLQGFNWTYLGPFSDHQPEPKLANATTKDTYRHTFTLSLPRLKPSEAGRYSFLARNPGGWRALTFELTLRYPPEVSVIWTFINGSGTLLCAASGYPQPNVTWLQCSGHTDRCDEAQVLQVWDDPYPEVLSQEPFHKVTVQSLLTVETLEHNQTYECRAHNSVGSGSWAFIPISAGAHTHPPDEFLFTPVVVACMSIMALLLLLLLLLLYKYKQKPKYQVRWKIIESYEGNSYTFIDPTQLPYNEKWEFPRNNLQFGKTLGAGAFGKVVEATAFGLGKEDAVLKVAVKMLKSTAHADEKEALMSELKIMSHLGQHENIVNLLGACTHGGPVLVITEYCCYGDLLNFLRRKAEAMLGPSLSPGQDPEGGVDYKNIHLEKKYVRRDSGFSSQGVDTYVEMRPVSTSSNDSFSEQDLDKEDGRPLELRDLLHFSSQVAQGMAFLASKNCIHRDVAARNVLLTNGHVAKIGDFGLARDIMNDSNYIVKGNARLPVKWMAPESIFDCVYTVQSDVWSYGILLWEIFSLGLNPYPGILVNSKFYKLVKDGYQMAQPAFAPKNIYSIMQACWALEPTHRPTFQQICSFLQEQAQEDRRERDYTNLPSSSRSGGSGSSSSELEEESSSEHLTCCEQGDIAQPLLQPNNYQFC
Outline: as §1

[7] = molecular target: T7, TRKC (Homo sapiens, UniProt Q16288)
T7 construct: purchased Reaction Biology Corp
T7 sequence (Q16288 32-839): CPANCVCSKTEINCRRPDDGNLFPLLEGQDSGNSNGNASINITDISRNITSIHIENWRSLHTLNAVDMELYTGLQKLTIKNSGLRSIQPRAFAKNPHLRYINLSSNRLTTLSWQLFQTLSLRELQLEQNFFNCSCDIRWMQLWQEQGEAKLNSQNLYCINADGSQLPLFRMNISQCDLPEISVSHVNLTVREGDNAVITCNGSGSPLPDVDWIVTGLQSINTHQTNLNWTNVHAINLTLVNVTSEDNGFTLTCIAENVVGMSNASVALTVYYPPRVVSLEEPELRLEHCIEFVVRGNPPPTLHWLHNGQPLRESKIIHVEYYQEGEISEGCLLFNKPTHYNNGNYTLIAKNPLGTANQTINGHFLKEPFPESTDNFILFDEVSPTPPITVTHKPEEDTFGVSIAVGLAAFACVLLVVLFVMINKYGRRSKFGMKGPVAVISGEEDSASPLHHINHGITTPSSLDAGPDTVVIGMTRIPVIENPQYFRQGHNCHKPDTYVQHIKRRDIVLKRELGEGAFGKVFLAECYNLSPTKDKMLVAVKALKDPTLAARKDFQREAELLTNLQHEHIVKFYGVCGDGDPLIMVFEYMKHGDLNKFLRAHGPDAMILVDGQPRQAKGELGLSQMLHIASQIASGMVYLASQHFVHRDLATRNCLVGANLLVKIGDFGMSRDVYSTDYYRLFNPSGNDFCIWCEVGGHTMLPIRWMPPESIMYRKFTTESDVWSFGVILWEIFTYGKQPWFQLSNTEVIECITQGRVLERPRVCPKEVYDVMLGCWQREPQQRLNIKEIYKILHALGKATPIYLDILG
Outline: as §1

[8] = molecular target: T8, MRCKb/CDC42BPB (Homo sapiens, UniProt Q9Y5S2)
T8 construct: purchased Reaction Biology Corp
T8 sequence (Q9Y5S2 whole entry): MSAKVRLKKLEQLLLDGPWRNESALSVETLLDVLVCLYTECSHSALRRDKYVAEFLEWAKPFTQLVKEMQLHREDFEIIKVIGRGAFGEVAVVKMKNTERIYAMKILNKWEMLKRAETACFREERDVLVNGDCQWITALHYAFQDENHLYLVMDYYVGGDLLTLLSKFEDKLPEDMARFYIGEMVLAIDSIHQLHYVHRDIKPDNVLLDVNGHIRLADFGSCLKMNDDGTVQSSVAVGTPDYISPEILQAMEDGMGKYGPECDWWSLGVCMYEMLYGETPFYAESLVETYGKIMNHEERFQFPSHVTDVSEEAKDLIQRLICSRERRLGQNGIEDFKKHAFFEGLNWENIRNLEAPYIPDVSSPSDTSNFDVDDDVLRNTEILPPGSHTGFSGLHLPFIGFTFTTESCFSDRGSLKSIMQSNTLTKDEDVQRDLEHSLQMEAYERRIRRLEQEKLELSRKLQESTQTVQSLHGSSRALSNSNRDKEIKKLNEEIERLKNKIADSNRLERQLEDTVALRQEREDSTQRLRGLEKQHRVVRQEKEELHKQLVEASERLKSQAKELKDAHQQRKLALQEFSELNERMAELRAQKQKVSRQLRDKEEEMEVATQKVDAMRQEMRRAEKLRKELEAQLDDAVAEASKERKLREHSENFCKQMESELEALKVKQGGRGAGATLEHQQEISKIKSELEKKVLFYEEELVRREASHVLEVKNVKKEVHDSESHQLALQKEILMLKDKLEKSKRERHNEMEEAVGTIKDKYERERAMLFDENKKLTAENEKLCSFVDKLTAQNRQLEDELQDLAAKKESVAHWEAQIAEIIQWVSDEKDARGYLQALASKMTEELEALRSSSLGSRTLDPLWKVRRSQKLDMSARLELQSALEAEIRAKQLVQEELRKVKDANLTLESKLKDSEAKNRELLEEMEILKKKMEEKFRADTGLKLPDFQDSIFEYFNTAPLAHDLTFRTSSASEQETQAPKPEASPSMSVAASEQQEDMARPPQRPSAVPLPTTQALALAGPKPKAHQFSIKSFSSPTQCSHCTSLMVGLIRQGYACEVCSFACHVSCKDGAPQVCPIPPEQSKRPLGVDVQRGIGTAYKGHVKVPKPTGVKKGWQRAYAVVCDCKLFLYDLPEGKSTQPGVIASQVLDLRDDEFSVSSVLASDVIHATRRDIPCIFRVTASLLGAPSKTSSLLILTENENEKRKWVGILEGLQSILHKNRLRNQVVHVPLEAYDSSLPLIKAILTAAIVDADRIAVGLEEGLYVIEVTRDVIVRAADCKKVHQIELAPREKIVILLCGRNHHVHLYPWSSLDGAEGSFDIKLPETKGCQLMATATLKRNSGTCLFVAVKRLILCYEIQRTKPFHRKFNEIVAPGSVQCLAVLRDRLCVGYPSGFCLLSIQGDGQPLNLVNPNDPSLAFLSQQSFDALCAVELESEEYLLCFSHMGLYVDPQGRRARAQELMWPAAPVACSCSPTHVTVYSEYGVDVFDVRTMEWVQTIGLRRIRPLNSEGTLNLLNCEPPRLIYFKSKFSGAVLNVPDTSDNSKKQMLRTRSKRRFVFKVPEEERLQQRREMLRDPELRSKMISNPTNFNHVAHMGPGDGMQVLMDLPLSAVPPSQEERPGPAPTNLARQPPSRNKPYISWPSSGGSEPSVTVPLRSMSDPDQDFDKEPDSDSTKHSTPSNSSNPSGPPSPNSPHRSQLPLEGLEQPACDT
Outline: as §1

[9] = read-out: % Enzyme Activity (relative to DMSO controls) Run 1
[10] = read-out: % Enzyme Activity (relative to DMSO controls) Run 2

For `C=CC(=O)Nc1cccc(Nc2nc(Nc3ccc(OCCOC)c(F)c3)ncc2F)c1` [Compound 2], which inhibition at 3 µM [1] is on record?
The inhibition at 3 µM was 39.4%.

What about the remaining activity at 3 µM [1, 9] of the same compound?
The remaining activity at 3 µM was 60.2%.

And the remaining activity at 3 µM [1, 10]?
The remaining activity at 3 µM was 60.9%.

What about the inhibition at 3 µM [2] of the same compound?
Its inhibition at 3 µM is -3.6%.

What about the remaining activity at 3 µM [2, 9] of the same compound?
The remaining activity at 3 µM was 107%.

And the remaining activity at 3 µM [2, 10]?
The remaining activity at 3 µM was 99.8%.

And the inhibition at 3 µM [3]?
Its inhibition at 3 µM is 8.66%.

And the remaining activity at 3 µM [3, 9]?
Its remaining activity at 3 µM is 91%.

And the remaining activity at 3 µM [3, 10]?
Its remaining activity at 3 µM is 91.7%.

And the inhibition at 3 µM [4]?
The inhibition at 3 µM was -27.8%.

What about the remaining activity at 3 µM [4, 9] of the same compound?
The remaining activity at 3 µM was 128%.

What about the remaining activity at 3 µM [4, 10] of the same compound?
The remaining activity at 3 µM was 128%.

What about the inhibition at 3 µM [5] of the same compound?
Its inhibition at 3 µM is -1.81%.

And the remaining activity at 3 µM [5, 9]?
The remaining activity at 3 µM was 98.2%.

And the remaining activity at 3 µM [5, 10]?
The remaining activity at 3 µM was 105%.

And the inhibition at 3 µM [6]?
Its inhibition at 3 µM is 34.1%.

And the remaining activity at 3 µM [6, 9]?
The remaining activity at 3 µM was 64.5%.

And the remaining activity at 3 µM [6, 10]?
The remaining activity at 3 µM was 67.3%.

And the inhibition at 3 µM [7]?
Its inhibition at 3 µM is 66.3%.

What about the remaining activity at 3 µM [7, 9] of the same compound?
The remaining activity at 3 µM was 35.1%.

What about the remaining activity at 3 µM [7, 10] of the same compound?
Its remaining activity at 3 µM is 32.3%.

And the inhibition at 3 µM [8]?
Its inhibition at 3 µM is -6.12%.

What about the remaining activity at 3 µM [8, 9] of the same compound?
The remaining activity at 3 µM was 107%.

What about the remaining activity at 3 µM [8, 10] of the same compound?
Its remaining activity at 3 µM is 105%.
